From publication PMC11123921, “Synthesis and Evaluation of 5-(Heteroarylmethylene)hydantoins as Glycogen Synthase Kinase-3β Inhibitors” (Pharmaceuticals, 2024)
Counter-ions that a name gives are not always drawn. Like-named read-outs stand apart in the source and are kept apart here.

Columns and labels:
GSK-3β [1] = target: T1, GSK-3β (Homo sapiens, UniProt P49841); test: GSK-3β kinase HotSpot assay (Reaction Biology); type: biochemical; conditions: 10 μM ATP; for activity at 25 µM: 25 μM compound, duplicate, average, remaining kinase activity vs vehicle; for IC50: 10-point, triplicate, average ± SD
T1 sequence (P49841 whole entry): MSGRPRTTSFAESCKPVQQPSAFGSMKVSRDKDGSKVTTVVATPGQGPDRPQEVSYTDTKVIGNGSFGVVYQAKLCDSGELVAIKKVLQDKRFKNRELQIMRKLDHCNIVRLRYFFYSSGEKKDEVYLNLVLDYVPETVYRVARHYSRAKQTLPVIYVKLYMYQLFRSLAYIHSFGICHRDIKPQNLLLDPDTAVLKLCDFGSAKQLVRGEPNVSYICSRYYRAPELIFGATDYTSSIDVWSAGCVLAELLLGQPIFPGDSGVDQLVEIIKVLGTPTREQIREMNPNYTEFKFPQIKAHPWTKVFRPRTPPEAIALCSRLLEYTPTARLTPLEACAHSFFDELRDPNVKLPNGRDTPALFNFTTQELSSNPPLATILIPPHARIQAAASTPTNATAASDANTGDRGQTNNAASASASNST

[2] = target: human matrix metalloproteinase-12 (Homo sapiens, UniProt P39900); test: Matrix metalloproteinase-12 fluorogenic substrate assay; type: biochemical; conditions: for activity at 25 µM: 25 μM compound, read-out: MMP-12 % Activity @ 25 μM; for activity at 200 µM: 200 μM compound, read-out: MMP-12 % Activity @ 200 μM
Sequence of human matrix metalloproteinase-12 (P39900 106-470): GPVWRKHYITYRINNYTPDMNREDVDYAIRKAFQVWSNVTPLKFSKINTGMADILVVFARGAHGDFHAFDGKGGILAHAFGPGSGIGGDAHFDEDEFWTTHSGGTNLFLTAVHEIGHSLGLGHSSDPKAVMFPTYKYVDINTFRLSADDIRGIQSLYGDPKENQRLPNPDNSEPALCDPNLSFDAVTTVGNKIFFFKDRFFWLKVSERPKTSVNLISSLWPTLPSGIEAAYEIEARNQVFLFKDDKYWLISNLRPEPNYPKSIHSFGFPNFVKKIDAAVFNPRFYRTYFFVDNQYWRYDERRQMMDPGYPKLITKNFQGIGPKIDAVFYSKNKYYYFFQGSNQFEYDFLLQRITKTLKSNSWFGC
Method: (§1) 5-(Heteroarylmethylene)hydantoins were evaluated as inhibitors for MMP-12 at fixed concentrations of 200 and 25 μM (Table 1). At 200 μM of 20–24, the activity of MMP-12 was ≤50% the activity of positive control; for compounds 21, 24, and 25 at 25 μM, the activity of MMP12 was 69–74% while the activity for the others was >80%. […] A select subset of the 5-(heteroarylmethylene)hydantoins were evaluated as inhibitors of human carbonic anhydrase II (hCAII) at 200 μM (Table 1). […] Finally, this same subset of 5-(heteroarylmethylene)hydantoins were evaluated as inhibitors of isolated S. aureus pyruvate carboxylase (SaPC) in a fixed-time assay (Table 1). No inhibitory activity was observed up to 1000 μM.
Assays for human matrix metalloproteinase-12 activity were performed in a 96-well plate format for a total reaction volume of 100 μL, in an assay modified from Day and Cohen. All assay reagents were prepared and maintained at 22 °C until warmed to 37 °C. The omniMMP fluorogenic substrate and MMP-12 enzyme were prepared in assay buffer (50 mM HEPES, 10 mM CaCl2, 0.05% Brij-35, pH of 7.52), and small molecule effectors were prepared as a solution in 50% DMSO, 50% assay buffer. The final concentration of enzyme in the 100 μL enzymatic reaction was 0.0083 U/μL. A known inhibitor, N-[(4’-bromo [1,1’-biphenyl]-4-yl)sulfonyl]-L-valine (PD166793), was included where noted at a final concentration of 100 μM. OmniMMP fluorogenic substrate was added to the 100 μL enzymatic reaction at a final concentration of 4 μM. For all experiments, 30 μL of enzyme stock solution was added to each well in a 96-well, flat-bottom, black polystyrene microplate (SantaCruz Biotechnology, Dallas, TX, USA), followed by the addition of 10 μL of the effectors (50% assay buffer, 50% DMSO for the uninhibited reaction, PD166793 for the inhibition). The 96-well plate was then incubated in a plate reader at 37 °C for 30 min; concurrently, the substrate solution was also warmed to 37 °C for 30 min. The enzymatic reaction was initiated by adding 60 μL of the omniMMP fluorogenic substrate solution. The change in fluorescence was then monitored for 30 min with excitation and emission wavelengths at 320 and 400 nm, respectively, every 46 s for a total of 40 measurements.

[3] = target: human carbonic anhydrase II (hCAII) (Homo sapiens, UniProt P00918); test: Human carbonic anhydrase II p-nitrophenyl acetate assay; type: biochemical; conditions: 200 μM compound
Method: as §1
Assays for human carbonic anhydrase II activity were performed in a 96-well plate format for a total reaction volume of 100 μL, in an assay modified from Day and Cohen. All assay reagents and solutions were prepared separately and maintained at 22 °C until warmed to 30 °C. All substrates, effectors, and enzyme were freshly dissolved and diluted in assay buffer containing 50 mM Tris (pH 8.0). The final concentration of the human carbonic anhydrase II enzyme was 200 nM. Where noted, acetazolamide was included at a final concentration of 10 μM. The substrate, p-nitrophenyl acetate, was added at a final concentration of 504 μM. For all experiments, 20 μL of enzyme stock solution was added to each well in a 96-well, flat-bottom, polystyrene microplate (Santa Cruz Biotechnology, Dallas, TX, USA), followed by the addition of 10 μL of the effectors (assay buffer for the uninhibited reaction, acetazolamide for the inhibition). The 96-well plate was then incubated in a plate reader at 30 °C for 10 min; concurrently, the substrate solution was also warmed to 30 °C for 10 min. The enzymatic reaction was initiated by adding 70 μL of the substrate solution (p-nitrophenyl acetate). The absorbance values were then measured at 405 nm every 30 s over a period of 20 min for a total of 40 measurements.

[4] = target: T2, Staphylococcus aureus pyruvate carboxylase (SaPC) (Staphylococcus aureus, UniProt A0A0H3JRU9); test: biochemical; conditions: isolated SaPC
T2 sequence (A0A0H3JRU9 1-1150): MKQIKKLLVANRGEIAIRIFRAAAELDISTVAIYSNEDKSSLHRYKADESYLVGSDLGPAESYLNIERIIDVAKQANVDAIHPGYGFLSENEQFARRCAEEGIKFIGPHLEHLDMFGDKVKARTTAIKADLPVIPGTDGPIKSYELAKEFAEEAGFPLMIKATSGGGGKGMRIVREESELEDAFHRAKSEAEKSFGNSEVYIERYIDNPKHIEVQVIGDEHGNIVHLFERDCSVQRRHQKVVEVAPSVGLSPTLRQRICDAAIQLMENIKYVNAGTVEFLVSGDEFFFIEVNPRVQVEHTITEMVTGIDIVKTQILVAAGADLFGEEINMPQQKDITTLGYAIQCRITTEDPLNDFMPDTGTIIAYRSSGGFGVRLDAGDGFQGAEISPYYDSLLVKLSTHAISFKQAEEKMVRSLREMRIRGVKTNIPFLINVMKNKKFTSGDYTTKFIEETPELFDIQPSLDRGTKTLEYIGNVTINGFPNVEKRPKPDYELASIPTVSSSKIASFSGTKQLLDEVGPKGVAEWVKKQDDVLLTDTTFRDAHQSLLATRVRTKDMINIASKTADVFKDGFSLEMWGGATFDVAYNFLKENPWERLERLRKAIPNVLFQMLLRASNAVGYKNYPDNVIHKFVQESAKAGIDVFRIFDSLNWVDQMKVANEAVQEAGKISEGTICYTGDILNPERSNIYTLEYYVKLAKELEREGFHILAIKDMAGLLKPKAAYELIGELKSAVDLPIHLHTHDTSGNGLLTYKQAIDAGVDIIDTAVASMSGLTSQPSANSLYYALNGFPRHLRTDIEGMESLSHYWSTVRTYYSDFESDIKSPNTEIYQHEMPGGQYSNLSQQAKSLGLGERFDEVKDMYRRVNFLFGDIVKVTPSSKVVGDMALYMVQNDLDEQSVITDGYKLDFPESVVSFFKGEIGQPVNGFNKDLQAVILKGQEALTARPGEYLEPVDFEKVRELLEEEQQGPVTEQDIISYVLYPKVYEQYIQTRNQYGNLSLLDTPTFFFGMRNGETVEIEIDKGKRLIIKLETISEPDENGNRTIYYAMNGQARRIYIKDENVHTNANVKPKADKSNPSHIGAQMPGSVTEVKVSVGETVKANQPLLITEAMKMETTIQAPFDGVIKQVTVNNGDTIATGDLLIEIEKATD

cancer migration = tested on: cancer migration; parameters: method as in PMID 20869139; conditions: cited from earlier work
GSK-3β [5] = target: T1, GSK-3β; conditions: cited from earlier work

Molecule | activity at 25 µM (GSK-3β [1]) | IC50 (GSK-3β [1]) | activity at 25 µM [2] | activity at 200 µM [2] | activity at 200 µM [3] | IC50 [4] | melting point | activity as cancer migration inhibitors (cancer migration) | hCAII % Activity @ 200 μM ([3]; 200 µM) | IC50 (GSK-3β [5])
COc1cccc(/C=C2\NC(=O)NC2=O)n1 [Compound 15, (Z)-5-[(6′-Methoxy-2-pyridinyl)methylene]-2,4-imidazolidinedione] | 17.3% | 4.06 ± 0.3 µM | 87.5% | 74% | 82.1 ± 11% | > 1000 µM | 249 to 251 °C | – | – | –
O=C1NC(=O)/C(=C/c2cccc(-c3cccs3)n2)N1 [Compound 16] | – | – | – | – | – | – | – | notable activity | – | –
O=C1NC(=O)/C(=C/c2ccccn2)N1 [Compound 17, (Z)-5-[(2′-Pyridinyl)methylene]-2,4-imidazolidinedione] | 55.4% | – | – | – | – | – | 231 to 233 °C | – | – | –
O=C1NC(=O)/C(=C/c2ccc3ccccc3n2)N1 [Compound 18, (Z)-5-[(2-Quinolinyl)methylene]-2,4-imidazolidinedione] | 32.9% | – | 94.1% | 57.6% | – | > 1000 µM | > 255 °C | – | – | –
O=C1NC(=O)/C(=C/c2cccnc2)N1 [Compound 19, (Z)-5-[(3′-Pyridinyl)methylene]-2,4-imidazolidinedione] | 71.8% | – | 84.2% | 50.6% | 88.9 ± 12.3% | > 1000 µM | > 255 °C | – | – | –
Cc1cccnc1/C=C1\NC(=O)NC1=O [Compound 20, (Z)-5-[(3′-Methyl-2-pyridinyl)methylene]-2,4-imidazolidinedione] | 31.6% | – | 108% | 39.6% | – | – | 245 to 248 °C | – | – | –
Cc1ccnc(/C=C2\NC(=O)NC2=O)c1 [Compound 21, (Z)-5-[(4′-Methyl-2-pyridinyl)methylene]-2,4-imidazolidinedione-HCl] | 42% | – | 71.6% | 28.5% | 94.8 ± 12.8% | > 1000 µM | – | – | – | –
Cc1ccc(/C=C2\NC(=O)NC2=O)nc1 [Compound 22, (Z)-5-[(5′-Methyl-2-pyridinyl)methylene]-2,4-imidazolidinedione] | 47% | – | 101% | 40.7% | 87.4 ± 11.8% | > 1000 µM | > 250 °C | – | – | –
Cc1cccc(/C=C2\NC(=O)NC2=O)n1 [Compound 23, (Z)-5-[(6′-Methyl-2-pyridinyl)methylene]-2,4-imidazolidinedione-HCl] | 28.4% | 8.34 ± 0.27 µM | 86.4% | 46.5% | 88.9 ± 12.3% | > 1000 µM | – | – | – | –
O=C1NC(=O)/C(=C/c2ncccc2Cl)N1 [Compound 24, (Z)-5-[(3′-Chloro-2-pyridinyl)methylene]-2,4-imidazolidinedione-HCl] | 44.6% | – | 69.1% | 39.2% | 91.8 ± 14.7% | > 1000 µM | – | – | – | –
O=C1NC(=O)/C(=C/c2cc(Cl)ccn2)N1 [Compound 25, (Z)-5-[(4′-Chloro-2-pyridinyl)methylene]-2,4-imidazolidinedione-HCl] | 15.4% | 2.14 ± 0.18 µM | 73.9% | 50% | 57 ± 16.4% | > 1000 µM | – | – | – | –
O=C1NC(=O)/C(=C/c2ccc(Br)cn2)N1 [Compound 26, (Z)-5-[(5′-Bromo-2-pyridinyl)methylene]-2,4-imidazolidinedione] | 35.3% | – | 98.6% | 72.9% | – | – | > 255 °C | – | – | –
O=C1NC(=O)/C(=C/c2cccc(Br)n2)N1 [Compound 27, (Z)-5-[(6′-Bromo-2-pyridinyl)methylene]-2,4-imidazolidinedione] | 17% | 3.39 ± 0.16 µM | 85.8% | 88.7% | 86.7 ± 12.1% | > 1000 µM | > 250 °C | – | – | –
O=C1NC(=O)/C(=C/c2ccc3ncccc3c2)N1 [Compound 28, (Z)-5-[(6′-Quinolinyl)methylene]-2,4-imidazolidinedione] | 22.5% | 7.82 ± 0.12 µM | 81.8% | 61.6% | – | – | > 250 °C | – | – | –
O=C1NC(=O)/C(=C/c2csc3ccccc23)N1 [Compound 29, (Z)-5-[(3-Benzo[b]thiophenyl)methylene]-2,4-imidazolidinedione] | 27.9% | – | 98.1% | 88% | 63% | > 1000 µM | > 250 °C | – | 62.7 ± 9.8% | –
indirubin-3-monoxime | – | – | – | – | – | – | – | – | – | 0.022 µM
